Measurements as given in ChEMBL document CHEMBL1150738, “Plant antitumor agents, 27. Isolation, structure, and structure activity relationships of alkaloids from Fagara macrophylla” (1987).
The source made the active and inactive calls. No cut-off for these calls is given here.

What was measured:
P388 = assay: In vivo antitumor activity against mouse P388 cells at 30 to 50 mg/kg, ip relative to control; format: functional; details: for T/C: dose mg/kg 30-50, route intraperitoneal
B16 = assay: Cytotoxicity against mouse B16 cells; format: functional, cell-based

## COc1cc2c(=O)n(C)c3c4cc5c(cc4ccc3c2cc1OC)OCO5
P388
  Activity: inactive

## COc1cc2cnc3c4cc5c(cc4ccc3c2cc1OC)OCO5
P388
  Activity: inactive

## COc1cc2c[n+](C)c3c4cc5c(cc4ccc3c2cc1OC)OCO5.[Cl-] [NITIDINE CHLORIDE]
B16
  Activity: inactive
P388
  T/C: 240%

## COc1cc2c(cc1OC)-c1ccc3cc4c(cc3c1N(C)C2)OCO4
P388
  Activity: inactive

## COc1cc2c(cc1OC)C(OC)N(C)c1c-2ccc2cc3c(cc12)OCO3 (stereo unspecified)
P388
  T/C: 240%
